Data published in US11207343B2, “Compositions and therapeutic methods” (AyuVis Research LLC, priority 2016, dated 2021).

Assays:
[1] = tested on: LPS induced cytokines (TNF-α, IL-1β and IL-6) in human monocytes; test: Inhibition of LPS induced inflammatory mediators in human monocytes; type: cell-based; details: for inhibiting LPS induced inflammation biomarkers (TNF-α, IL-1β and IL-6) in human monocytes: concentration not given; for inhibition of LPS induced TNF-α production: 100 μM
Method: To understand the structural requirement and limitations to probe the TLR4 binding pocket for optimal potency and efficacy, we have studied the ability of chitooligomers to inhibit LPS induced inflammation in human monocytes (FIG-8 A-B). Compounds 1-4 inhibited LPS induced cytokines TNF-α, IL-1β and IL-6) in a statistically significant manner at 10 μM concentration. […] The protocol was followed as described [Panda etal, PLoS Pathog 2012, 8, e1002717]. Human monocytes were stimulated with LPS along with the series of compounds (10 μM) for 48 h. TNF-α, IL-1β, I1-6 in culture supernatants were quantified according to the manufacturer's instruction. Similarly, other analogs were assessed for their ability to inhibit LPS induced TNF-α production in human monocytes.

[2] = tested on: LPS induced TNF-α in mouse bone marrow derived macrophages; test: Inflammatory mediator (TNF-α) in mouse bone marrow derived macrophages; type: cell-based; details: for inhibiting LPS and HMGB1 induced inflammation biomarkers (TNF-α, IL-1β and IL-6): bone derived mouse macrophages; for inhibition of LPS induced production of TNF-α: 100 μM, 8 hours, mouse bone marrow derived macrophages
Method: Bone marrow derived mouse macrophages were treated with 100 μM of the above test compounds for 8 hours. Pro-inflammatory cytokines such as TNF-α protein level was measured by […]. LPS treatment (10 ng/ml) was used as positive control (FIG. 9).

[3] = tested on: HMGB1 induced VEGF production in ARPE-19 cells; test: HMGB1 induced VEGF production in ARPE-19 cells (ELISA); type: cell-based, human; details: 50 μg/mL, 100 ng/mL HMGB1, 24 h, p<0.01
Text: Central to photoreceptor survival and function, the RPE is the major source of the angiogenic factor VEGF and therefore plays a central role in the modulation and progression of choroidal neovascularization [Spilsbury et al, The American Journal of Pathology 2000, 157, 135-144; Betts et al, ISRN Ophthalmology 2011, 2011, 184295] leading to AMD. As part of our preliminary result to evaluate if compounds 1 and 2 can inhibit the HMGB1 (an endogenous ligand for TLR4) induced VEGF production in ARPE-19 cells. […] 2×10^5 ARPE-19 cells were seeded in 24 well plate for 24 h in full medium containing 10% serum following which they were maintained for additional 24 h with serum free medium. Cells were treated with 0 μg/mL (medium) or 100 ng/mL of HMGB1 along with or without of 50 μg/mL of test compounds for 24 h. Supernatant was collected and assayed using human VEGF ELISA kit from Peprotech according to manufacturer's instructions. RPE cells are located adjacent to choroidal capillaries and other major ocular vasculatures.

[4] = tested on: laser-induced choroidal neovascularization; test: Laser-induced CNV mouse model for wet AMD; type: in vivo, C57BL/6 mice
Text: The parameters used to reproducibly obtain successful laser spots (as confirmed by a gas bubble formation indicating rupture of Bruch membrane) were: 350 mW, 75 msec, and 50 μm spot size. Four laser spots were applied; 2-3 disc diameters from the optic nerve. […] By the end of the experiment, mouse eyes were examined by fundus fluorescein angiography and/or optical coherence tomography (OCT) to visualize the CNV lesions. Afterwards animals were sacrificed and RPE/choroid/sclera flat mounts were prepared and stained with both FITC-conjugated isolectin B4 and anti-ICAM-2 antibody to quantitatively measure the size of CNV. We have performed two experiments to test the effects of 1, 2, 26 on laser-induced CNV.

MRSA and MSSA strains = test: Activity against MRSA and MSSA strains compared to colistin; type: cell-based, S. aureus; details: colistin as positive control
Text: (§1) Further we studied their biofilm inhibition and eradication activities against biofilm cells as described previously [Ceri et al, Journal of Clinical Microbiology 1999, 37, 1771-1776]. […] Thus, these compounds with activities against S. aureus biofilms will have significant impact on controlling recalcitrant biofilm-mediated endovascular infections [Li et al, J Infect Dis. 2016 Nov. 1;214(9):1421-1429; Archer et al, Virulence 2011, 2, 445-459]. Briefly, we used Calgary Biofilm Device (CBD) technology for the biofilm susceptibilities to compounds. The CBD produces 96 equivalent biofilms for the assay of antibiotic susceptibilities by the standard 96-well technology. Susceptibility to a standard group of compounds and antibiotics was determined for National Committee for Clinical Laboratory Standards (NCCLS) as described previously.

E. coli (ATCC-25922) = test: Lethal gram negative E. coli sepsis mouse model; type: in vivo; details: 250 μg/animal with 2×10^5 CFU E. coli intraperitoneally, BALB/c mice
Method: In an in vivo mice model, chitohexaose (Compound 1) protected mouse from lethal gram negative sepsis against E. coli. Previously reported bacterial sepsis model [Roger etal, Proc Natl Acad Sci USA. 2009 Feb 17;106(7):2348-52] was recruited to study the efficacy of Compound 1 (FIG-1). Intraperitoneally 2×10^5 CFU of E. coli (ATCC-25922) was injected into BALB/c mice with and without Compound 1 (250 μg/animal). E. coli mediated sepsis induced mortality whereas simultaneous treatment of mice with Compound 1 protected (40%) from sepsis induced death. The above result explained that bacteria induced sepsis and mortality is inhibited and delayed for a certain period of time which may provide a window for therapy.

[5] = tested on: S. aureus biofilms (MRSA, MSSA); test: Biofilm inhibition and eradication, Calgary Biofilm Device; type: cell-based
Text: as §1

[6] = tested on: gram negative (E. Coli, P. Aeruginosa, A, Baumannii, K. Pneumonia), gram positive (MRSA), fungus (C. Albicans); test: MIC broth microdilution antimicrobial screen; type: cell-based
Text: The compounds were screened against selected gram negative (E. Coli, P. Aeruginosa, A, Baumannii, K. Pneumonia), gram positive (MRSA) as well as fungus (C. Albicans) mostly found in burn and septic wounds. […] All prepared compounds have been evaluated in a Minimum Inhibitory Concentrations (MIC) assay with both test and control articles in accordance with guidelines of the Clinical Laboratory Standards Institute (CLSI) for broth microdilution susceptibility testing. Briefly, test and control compounds have been dissolved in DMSO, diluted to proper concentrations and added to 96-well microdilution trays. Brain Heart Infusion Broth (BHI) was used for studies with bacterial strains such as S. aureus, E. coli, P. Aeruginosa, K pneumoniae, A. baumannii and Candida albicans. Compounds were diluted serially from 200 μg/ml to 0.0625 μg/ml and plated in 96 well plates, and inoculated with approximately 1×10^5 CFU of each organism.

| Compound | inhibiting LPS induced inflammation biomarkers (TNF-α, IL-1β and IL-6) in human monocytes [1] | inhibiting LPS and HMGB1 induced inflammation biomarkers (TNF-α, IL-1β and IL-6) [2] | HMGB1 induced VEGF production [3] | inhibition of LPS induced production of TNF-α [2] | inhibition of LPS induced TNF-α production ([1]; human monocytes) | activity against MRSA and MSSA strains compared to colistin (MRSA and MSSA strains) | other results |
| --- | --- | --- | --- | --- | --- | --- | --- |
| chitooctaose [Compound 3] | unexpectedly potent activity | unexpectedly potent activity | – | – | – | – | – |
| chitohepatose [Compound 2] | unexpectedly potent activity | unexpectedly potent activity | effectively reduced | Inhibits | – | – | average size of CNV lesions, relative to control mice treated with vehicle only ([4]; 200 μg daily i.p. injection): about 60%; decrease of choroidal neovascularization ([4]; as worded in heading of Example 16): ~60%; potency relative to chitohexaose (Compound 1), percentage of inhibition of LPS mediated induction of inflammatory cytokines ([1]; 10 μM, human monocytes): more potent than chitohexaose |
| CC1(C)CC(C(=O)NC2C(OC3C(CO)OC(O)C(N)C3O)OC(CO)C(OC3OC(CO)C(O)C(O)C3N)C2O)CC(C)(C)N1[O] (stereo not shown) [Compound 11] | unexpectedly superior activity | – | – | – | – | – | – |
| COCC1OC(Oc2ccc([N+](=O)[O-])cc2)C(NC(C)=O)C(O)C1O (stereo not shown) [Compound 16] | – | – | – | – | potent inhibitor | – | – |
| chitohexaose [Compound 1] | – | – | effectively reduced | Inhibits | – | better activity | protection from sepsis induced death (E. coli (ATCC-25922)): 40% |
| CC(=O)NC1C(OC2C(CO)OC(Oc3ccc4c(C)cc(=O)oc4c3)C(NC(C)=O)C2O)OC(CO)C(O)C1O (stereo not shown) [Compound 12] | – | – | – | – | potent inhibitor | better activity | inhibition of biofilm formation by MSSA and MRSA [5]: unexpectedly inhibited biofilm formation; broad spectrum antimicrobial activity against gram negative, gram positive bacteria and fungus [6]: broad spectrum antimicrobial activity |
